Patent US4503236A, “Antiallergic 4Hfuro[3,2-b]indoles” (Warner-Lambert Company, priority 1983, dated 1985)

Test system: Trachea and lungs (ovalbumin-sensitized guinea pig tissue, antigen challenge)
Assay: modified Shultz-Dale procedure: inhibition of antigen-induced contraction of isolated trachea and lung from ovalbumin-immunized guinea pigs
Type: cell-based
Conditions: 3 × 10^-5 M, isolated guinea pig tissue (trachea/lung not distinguished), antigen challenge 10 min after drug; for inhibition at 30 µM: Cavia porcellus, 10 min
Procedure: The compounds of the invention display antiallergic properties when tested by the following procedure [modification of Shultz-Dale procedure, Agents and Actions, 8, 171 (1978)]: Guinea pigs, after one week environmental stabilization, are immunized IP with 1 mg crude ovalbumin (OA) in 1 ml saline with 50% complete Freund's Adjuvant (CFA). Twenty-one days later animals are killed by a blow to the head. Trachea and lungs are removed and placed in Tyrode's solution, pH 7.4, aerated with 5% CO2 in O2.
Trachea: Connective and vascular tissue are removed and a wooden stick is inserted in the lumen. One end of the trachea is fixed with a pin. The stick is held against a surgical blade and rotated in a helical manner. Spirals formed are cut into two lengths, each containing two or more bands of transverse strips of tracheal muscle. The tissue is attached to transducers and maintained at 5 g tension. Sensitivity of the preamplifier is 2.0 mv/cm and of the amplifier, 0.02 mv/cm, with calibration of 20 mg force displacement per mm. After 45 minutes equilibration, the tissue is challenged with antigen.
Lung: The heart and lung are removed as a unit and the lung is perfused with buffer by the spontaneously beating heart for several minutes. Distal strips of lung from the diaphragmatic lobe approximately 0.3 cm wide and 3 cm long are removed and attached to transducers. Preload is 0.3 g of tension with sensitivity at 0.02 mv/cm on the amplifier and 0.5 mv/cm on the preamp and calibration of 1 mm=5 mg force displacement.
Test Design for Evaluation of Drugs: All tissues are challenged repetitively with the same concentration of antigen. After each concentration, the tissue is washed and allowed to stabilize. The original baseline tension is reestablished before the next challenge. Control contractions in lung must develop a minimum of 10 mg and in trachea, a minimum of 40 mg tension above baseline. When the contractions are reproducible, drug is introduced. Drug effects of baseline are monitored. Ten minutes later, after readjustment to baseline tension as indicated by consecutive reading one minute apart, tissue is again challenged with antigen. The concentration is monitored for at least 15 minutes and the tissue is washed free of antigen and drug. […] Tissues are not used again. If inhibition takes place, a final antigen challenge is repeated to establish that the tissue is reactive to antigen.

SMILES	inhibition at 30 µM	% Inhibition
CCOc1c(C(=O)O)oc2c3cc(OC)ccc3n(-c3ccccc3)c12 [CH3 O, C6 H5, C2 H5, COOH, 3-Ethoxy-7-methoxy-4-phenyl-4H-furo[3,2-b]indole-2-carboxylic acid]	100%	–
CCOc1c(C(=O)Nc2nnn[nH]2)oc2c3cc(OC)ccc3n(-c3ccccc3)c12 [CH3 O, C6 H5, C2 H5,, 3-Ethoxy-7-methoxy-4-phenyl-N-(1H-tetrazol-5-yl)-4H-furo[3,2-b]indole-2-carboxamide]	100%	–
COc1ccc2c(c1)c1oc(C(=O)O)c(OC)c1n2-c1ccccc1 [CH3 O, C6 H5, CH3, COOH, 3,7-Dimethoxy-4-phenyl-4H-furo[3,2-b]indole-2-carboxylic acid]	100%	–
COc1ccc2c(c1)c1oc(-c3nnn[nH]3)c(OC)c1n2-c1ccccc1 [CH3 O, C6 H5, CH3,, 3,7-Dimethoxy-4-phenyl-2-(1H-tetrazol-5-yl)-4H-furo[3,2-b]indole]	100%	–
COc1ccc2c(c1)c1oc(C(=O)Nc3nnn[nH]3)c(OC)c1n2-c1ccccc1 [CH3 O, C6 H5, CH3,, 3,7-Dimethoxy-4-phenyl-N-(1H-tetrazol-5-yl)-4H-furo[3,2-b]indole-2-carboxamide]	100%	–
CCOc1c(C(=O)O)oc2c3ccccc3n(-c3ccccc3)c12 [H, C6 H5, C2 H5, COOH, 3-Ethoxy-4-phenyl-4H-furo[3,2-b]indole-2-carboxylic acid]	100%	–
CCOc1c(-c2nnn[nH]2)oc2c3ccccc3n(-c3ccccc3)c12 [H, C6 H5, C2 H5,, 3-Ethoxy-4-phenyl-2(1H-tetrazol-5-yl)-4H-furo[3,2-b]indole]	100%	–
CCOc1c(C(=O)Nc2nnn[nH]2)oc2c3ccccc3n(-c3ccccc3)c12 [H, C6 H5, C2 H5,, 3-Ethoxy-4-phenyl-N(1H-tetrazol-5-yl)-4H-furo[3,2-b]-indole-2-carboxamide]	–	100%
COc1c(C(=O)O)oc2c3ccccc3n(-c3ccccc3)c12 [H, C6 H5, CH3, COOH, 3-Methoxy-4-phenyl-4H-furo[3,2-b]indole-2-carboxylic acid]	100%	–
COc1c(C(=O)Nc2nnn[nH]2)oc2c3ccccc3n(-c3ccccc3)c12 [H, C6 H5, CH3,, 3-Methoxy-4-phenyl-N-(1H-tetrazol-5-yl)-4H-furo[3,2-b]indole-2-carboxamide]	100%	–
COc1c(-c2nnn[nH]2)oc2c3ccccc3n(C)c12 [H, CH3, CH3,, 3-Methoxy-4-methyl-2-(1H-tetrazol-5-yl)-4H-furo[3,2-b]indole]	26%	–
COc1c(C(=O)Nc2nnn[nH]2)oc2c3ccccc3n(C)c12 [H, CH3, CH3,, 3-Methoxy-4-methyl-N-(1H-tetrazol-5-yl)-4H-furo[3,2-b]indole-2-carboxamide]	38%	–
